These results are taken from patent US20100204119A1, “4-AMINO-5-OXO-7,8-DIHYDROPYRIMIDO[5,4-F][1,4]OXAZEPIN-6(5H)-YL PHENYL DERIVATIVES” (Pfizer Inc, priority 2009, published 2010).

In this experiment the target is T1, Human full-length diacylglycerol:acylCoA acyltransferase 1 (DGAT-1) (Homo sapiens, UniProt O75907).
T1 sequence (O75907 1-488): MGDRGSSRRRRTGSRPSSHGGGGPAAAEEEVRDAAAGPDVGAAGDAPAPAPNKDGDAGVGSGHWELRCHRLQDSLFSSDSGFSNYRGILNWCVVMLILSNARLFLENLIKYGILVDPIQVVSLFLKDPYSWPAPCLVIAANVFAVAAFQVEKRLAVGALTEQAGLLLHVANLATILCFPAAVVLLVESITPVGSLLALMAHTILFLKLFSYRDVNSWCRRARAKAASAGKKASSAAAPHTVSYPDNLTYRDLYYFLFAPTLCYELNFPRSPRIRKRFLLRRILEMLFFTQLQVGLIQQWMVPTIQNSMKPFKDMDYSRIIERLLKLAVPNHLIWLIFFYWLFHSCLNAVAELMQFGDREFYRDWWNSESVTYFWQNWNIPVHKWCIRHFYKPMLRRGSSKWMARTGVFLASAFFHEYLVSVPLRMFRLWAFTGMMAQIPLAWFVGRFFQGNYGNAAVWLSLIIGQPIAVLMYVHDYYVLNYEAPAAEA
The experiment can be described thus: In vitro assay for inhibition of DGAT-1 activity (DGAT 1 Reduced Microsome Multidose Assay). As to conditions: average where n > 1.

[1] abbreviates: Trial 1 Human IC50, Trial 1: as Trial 4 except microsomes at 25 μg/mL instead of 5 μg/mL.
[2] abbreviates: Trial 4 Human IC50, Trial 4: eight concentrations of inhibitor, microsomes 5 μg/mL.
The mark [3] stands for this setting: Trial 2 Human IC50, Trial 2: as Trial 4 except eleven concentrations of inhibitor instead of eight.
Where [4] appears, read: Trial 3 Human IC50, Trial 3: as Trial 2 except compounds serially diluted in a different laboratory.

Broadly, the IC50 is the midpoint of a concentration-inhibition curve. A higher IC50 goes with weaker potency in that assay.

Method: Human full-length diacylglycerol:acylCoA acyltransferase 1 (DGAT-1) was expressed in Sf9 insect cells which are then lysed and a crude membrane fraction (105,000×g pellet) was prepared.
Inhibitors in DMSO were pre-incubated with membranes before initiating the DGAT-1 reaction by the addition of decanoylCoA. […] The inhibitors were present at a range of eight concentrations to generate an apparent IC50 for each compound. […] Specifically, the eight concentrations used were 3 μM, 1 μM, 300 nM, 100 nM, 30 nM, 10 nM, 3 nM and 1 nM.
The reactions were allowed to proceed for 1.5 hours at room temperature and then terminated by the addition of 20 μl of EDTA (40 mM). Reaction mixture is then mixed by trituration with 30 μl of Microscint™-E (Perkin Elmer). […] Four separate trials were conducted. The method of analysis of Trial 1 was the same as Trial 4 (described above) except microsomes were utilized at 25 μg/mL instead of 5 μg/mL. The method of analysis of Trial 2 was the same as Trial 4 (described above) except eleven (11) concentrations of inhibitor were employed instead of eight (8). The method of analysis of Trial 3 was the same as Trial 2 except the compounds were serially diluted in a different laboratory.
Where this DGAT-1 inhibition assay was performed on a compound more than once, an average is provided for that compound.

`CC(C)(O)CC[C@H]1CC[C@H](c2ccc(N3CCOc4ncnc(N)c4C3=O)cc2)CC1` [Example 1A-1] yielded an IC50 under setting [1] of 104 nM.
Under setting [2], `C[C@@H]1CN(c2ccc(C(C)(C)O)cc2)C(=O)c2c(N)ncnc2O1` [Example 1A-2, (8R)-4-amino-6-(4-(2-hydroxypropan-2-yl)phenyl)-8-methyl-7,8-dihydropyrimido[5,4-f][1,4]oxazepin-5(6H)-one] gave an IC50 of 61.4 nM.
The same measure, in the same setting: then `COCC(C)(C)c1ccc(N2C[C@@H](C)Oc3ncnc(N)c3C2=O)cc1` [Example 1AA], with 42.7 nM; and `C[C@@H]1CN(c2ccc(Cl)c(Cl)c2)C(=O)c2c(N)ncnc2O1` [Example 1AB, (8R)-4-amino-6-(3,4-dichlorophenyl)-8-methyl-7,8-dihydropyrimido[5,4-F][1,4]oxazepin-5(6H)-one], with 24.8 nM.
Still for that read-out and setting: then `C[C@@H]1CN(c2ccc([C@@H](O)C(C)(C)C)cc2)C(=O)c2c(N)ncnc2O1` [Example 1AC], with 55.4 nM.
For `C[C@@H]1CN(c2ccc([C@H](O)C(C)(C)C)cc2)C(=O)c2c(N)ncnc2O1` [Example 1AD], half-maximal inhibition under setting [2] (IC50) was put at 22.6 nM.
With `C[C@@H]1CN(c2ccc(C3(C(N)=O)CCCCC3)cc2)C(=O)c2c(N)ncnc2O1` [Example 1AE, 1-{4-[(8R)-4-amino-8-methyl-5-oxo-7,8-dihydropyrimido[5,4-f][1,4]oxazepin-6(5H)-yl]phenyl}cyclohexanecarboxamide], the IC50 under setting [2] was 82.4 nM.
The same measure, in the same setting: in the case of `C[C@@H]1CN(c2ccc(C3(C(N)=O)CCCC3)cc2)C(=O)c2c(N)ncnc2O1` [Example 1AF, 1-{4-[(8R)-4-amino-8-methyl-5-oxo-7,8-dihydropyrimido[5,4-f][1,4]oxazepin-6(5H)-yl]phenyl}cyclopentanecarboxamide] it was 117 nM; in that of `COC(C)(C)Cc1ccc(N2C[C@@H](C)Oc3ncnc(N)c3C2=O)cc1` [Example 1AG], 45.2 nM.
In turn, `C[C@@H]1CN(c2ccc(C3(C(N)=O)CCC3)cc2)C(=O)c2c(N)ncnc2O1` [Example 1AH, 1-{4-[(8R)-4-amino-8-methyl-5-oxo-7,8-dihydropyrimido[5,4-f][1,4]oxazepin-6(5H)-yl]phenyl}cyclobutanecarboxamide] gave a half-inhibitory concentration (IC50) under setting [2] of 78.2 nM.
`CCC(CC)(OC)c1ccc(N2C[C@@H](C)Oc3ncnc(N)c3C2=O)cc1` [Example 1AI, (8R)-4-amino-6-[4-(1-ethyl-1-methoxypropyl)phenyl]-8-methyl-7,8-dihydropyrimido[5,4-f][1,4]oxazepin-5(6H)-one] registered an IC50 under setting [2] of 15.5 nM.
The same measure, in the same setting: then `C[C@@H]1CN(c2ccc(C3(O)CCCCC3)cc2)C(=O)c2c(N)ncnc2O1` [Example 1AJ], with 35.6 nM; and `CCOC(C)(C)c1ccc(N2C[C@@H](C)Oc3ncnc(N)c3C2=O)cc1` [Example 1AK, (8R)-4-amino-6-[4-(1-ethoxy-1-methylethyl)phenyl]-8-methyl-7,8-dihydropyrimido[5,4-f][1,4]oxazepin-5(6H)-one], with 42.3 nM; and `COC(C)(C)c1ccc(N2C[C@@H](C)Oc3ncnc(N)c3C2=O)cc1` [Example 1AL, (8R)-4-amino-6-[4-(1-methoxy-1-methylethyl)phenyl]-8-methyl-7,8-dihydropyrimido[5,4-f][1,4]oxazepin-5(6H)-one], with 34.6 nM.
Same read-out and setting: then `C[C@@H]1CN(c2ccc(CC(N)=O)cc2)C(=O)c2c(N)ncnc2O1` [Example 1AM, (8R)-2-(4-(4-amino-8-methyl-5-oxo-7,8-dihydropyrimido[5,4-f][1,4]oxazepin-6(5H)-yl)phenyl)acetamide], with 313 nM; and `C[C@@H]1CN(c2ccc(CC(C)(C)O)cc2)C(=O)c2c(N)ncnc2O1` [Example 1AN], with 104 nM.
Same read-out and setting: then `C[C@@H]1CN(c2ccc(C(C)(C)C(=O)O)cc2)C(=O)c2c(N)ncnc2O1` [Example 1AO, 2-{4-[(8R)-4-amino-8-methyl-5-oxo-7,8-dihydropyrimido[5,4-f][1,4]oxazepin-6(5H)-yl]phenyl}-2-methylpropanoic acid], with 20 nM.
On to `CCC(O)(CC)c1ccc(N2C[C@@H](C)Oc3ncnc(N)c3C2=O)cc1` [Example 1AP, (8R)-4-Amino-6-[4-(1-ethyl-1-hydroxypropyl)phenyl]-8-methyl-7,8-dihydropyrimido[5,4-f][1,4]oxazepin-5(6H)-one], for which the IC50 under setting [2] is 29.4 nM.
Same read-out and setting: in the case of `C[C@@H]1CN(c2ccc(C(C)(C)CO)cc2)C(=O)c2c(N)ncnc2O1` [Example 1AQ] it was 31 nM.
As to `C[C@@H]1CN(c2ccc(C(C)(C)C(N)=O)cc2)C(=O)c2c(N)ncnc2O1` [Example 1AR], the IC50 under setting [2] was determined as 24 nM.
Under setting [1], `CC(C)(C(N)=O)c1ccc(N2CCOc3ncnc(N)c3C2=O)cc1` [Example 1D, 2-[4-(4-amino-5-oxo-7,8-dihydropyrimido[5,4-f][1,4]oxazepin-6(5H)-yl)phenyl]-2-methylpropanamide] yielded a half-inhibitory concentration (IC50) of 2750 nM.
Compound `Nc1ncnc2c1C(=O)N(c1ccc([C@H]3CC[C@H](CCO)CC3)cc1)CCO2` [Example 1E, 4-amino-6-{4-[trans-4-(2-hydroxyethyl)cyclohexyl]phenyl}-7,8-dihydropyrimido[5,4-f][1,4]oxazepin-5(6H)-one] returned an IC50 under setting [3] of 14.1 nM and an IC50 under setting [4] of 9.75 nM.
Compound `CC(C)(C#N)c1ccc(N2CCOc3ncnc(N)c3C2=O)cc1` [Example 1F, 2-[4-(4-amino-5-oxo-7,8-dihydropyrimido[5,4-f][1,4]oxazepin-6(5H)-yl)phenyl]-2-methylpropanenitrile] had an IC50 under setting [1] of 2120 nM, an IC50 under setting [3] of 1290 nM and a half-maximal inhibitory concentration (IC50) under setting [4] of 2660 nM.
On to `CC(C)c1ccc(N2CCOc3ncnc(N)c3C2=O)cc1` [Example 1H], for which the IC50 reads like this: under setting [3], 17.1 nM; under setting [4], 26.3 nM.
As for `C[C@@H]1CN(c2ccc(C(C)(C)C)cc2)C(=O)c2c(N)ncnc2O1` [Example 1I, (8R)-4-amino-6-(4-tert-butylphenyl)-8-methyl-7,8-dihydropyrimido[5,4-f]-[1,4]oxazepin-5(6H)-one], the IC50 runs as follows: under setting [3], 18.4 nM; under setting [4], 33.7 nM; under setting [2], 16.3 nM.
As for `COC(=O)c1ccc(N2C[C@@H](C)Oc3ncnc(N)c3C2=O)cc1` [Example 1J, Methyl 4-[(8R)-4-amino-8-methyl-5-oxo-7,8-dihydropyrimido[5,4-f][1,4]oxazepin-6(5H)-yl]benzoate], the IC50 under setting [2] turned out to be 161 nM.
The same measure, in the same setting: in the case of `CC(C)c1ccc(N2C[C@@H](C)Oc3ncnc(N)c3C2=O)cc1` [Example 1K, (8R)-4-amino-6-(4-isopropylphenyl)-8-methyl-7,8-dihydropyrimido[5,4-f]-[1,4]oxazepin-5(6H)-one] it was 17.6 nM; in that of `C[C@@H]1CN(c2ccc(C(C)(C)F)cc2)C(=O)c2c(N)ncnc2O1` [Example 1L, (8R)-4-amino-6-[4-(1-fluoro-1-methylethyl)phenyl]-8-methyl-7,8-dihydropyrimido[5,4-f][1,4]oxazepin-5(6H)-one], 46.1 nM.
`CCc1ccc(N2C[C@@H](C)Oc3ncnc(N)c3C2=O)cc1` [Example 1M, (8R)-4-amino-6-(4-ethylphenyl)-8-methyl-7,8-dihydropyrimido[5,4-f]-[1,4]oxazepin-5(6H)-one] yielded an IC50 under setting [2] of 13.7 nM.
Under setting [2], `COc1nc(N)c2c(n1)O[C@H](C)CN(c1ccc(C(C)(C)C)cc1)C2=O` [Example 1N] showed an IC50 of 44.5 nM.
